Test results from patent publication EP4700024A1, “CYCLOPENTYLPYRAZOLAMINE DERIVATIVE AND USE THEREOF” (Chia Tai Tianqing Pharmaceutical Group Co., Ltd., priority 2023, dated 2024).
Like-named read-outs stand apart in the source and are kept apart here.

Key:
CDK2/CycA2 kinase = CDK2/CycA2 kinase (Homo sapiens, UniProt P24941); test: Determination of inhibitory activity against CDK2/CycA2 kinase; assay type: biochemical
Method: 1.1 Determination of inhibitory activity against CDK2/CycA2 kinase
(§1) CDK2/CycA2 kinase solution (concentration: 0.078 ng/µL) was added to assay wells at 6 µL/well, and different compounds dissolved in DMSO were added to the assay wells separately using a nanoliter pipettor, such that the final concentrations of the compounds were 1000 nM to 0.244 nM. The wells were set in duplicate, and a control well was set. After a 30-min incubation of the above system, ATP (concentration: 50 µM or 5000 µM) was mixed with ULight-Myelin Basic Protein Peptide substrate (manufacturer: PerkinElmer, concentration: 0.25 µM) in a ratio of 1:1, and the mixture was added to the assay wells at 4 µL/well. The resultant mixture was left to react at room temperature for 2 h, and then 5 µL of EDTA was added to terminate the reaction, followed by the addition of 5 µL of a detection antibody (manufacturer: PerkinElmer, concentration: 8 nM). The mixture was incubated at room temperature for 1 h. The assay was performed using a PerkinElmer Envision multifunctional microplate reader (excitation: 320 nm, emission: 615 nm/665 nm), and IC50 was calculated by four-parameter fitting.

CDK2 CycE1 kinase = CDK2 CycE1 kinase (Homo sapiens, UniProt P24941); test: Determination of inhibitory activity against CDK2 CycE1 kinase; assay type: biochemical
Method: 1.2 Determination of inhibitory activity against CDK2 CycE1 kinase
as §1, with “CDK2 CycEl” for “CDK2/CycA2”, “0.015” for “0.078”, “300” for “1000”, “0.07” for “0.244”, “fitting. […] Table 1: Inhibitory activity of compound against CDK2 CycA2 and CDK2 CycEl kinases” for “fitting.”

[1] = CDK2/CycA2 10 µM ATP (kinase) IC50 (nM)
[2] = read-out: CDK2/CycA2 10 µM ATP (kinase) IC50
[3] = read-out: CDK2/CycE1 10 µM ATP (kinase) IC50

Row | IC50 (CDK2/CycA2 kinase; [1]) [nM] | IC50 (CDK2 CycE1 kinase; 10 µM ATP (kinase)) [nM] | IC50 (CDK2/CycA2 kinase; [2]) [nM] | IC50 (CDK2 CycE1 kinase; [3]) [nM] | SMILES
1 | < 10 | < 10 | – | – | CCNC(=O)OC1CCC(c2cc(Nc3ccc4c(c3)CS(=O)(=O)C4)[nH]n2)C1 (centres unmarked) [Compound 10]
2 | – | 10 to 50 | – | – | CCNC(=O)OC1CCC(c2cc(Nc3ccc4c(c3)C[S+]([O-])C4)[nH]n2)C1 (centres unmarked) [Compound 19]
3 | – | 10 to 50 | – | – | O=C(NC1CC1)OC1CCC(c2cc(Nc3ccc4c(c3)C[S+]([O-])C4)[nH]n2)C1 (centres unmarked) [Compound 24]
4 | 10 to 50 | < 10 | – | – | CC1(NC(=O)OC2CCC(c3cc(Nc4ccc5c(c4)C[S+]([O-])C5)[nH]n3)C2)CC1 (centres unmarked) [Compound 25]
5 | < 10 | < 10 | – | – | CC1(C)CCN1C(=O)OC1CCC(c2cc(Nc3ccc4c(c3)C[S+]([O-])C4)[nH]n2)C1 (centres unmarked) [Compound 26]
6 | < 10 | – | – | < 10 | CC1(C)CCN1C(=O)OC1CCC(c2cc(Nc3ccc4c(c3)C[S+]([O-])C4)[nH]n2)C1 (centres unmarked) [Compound 29]
7 | 10 to 50 | – | – | < 10 | CC1(C)CCN1C(=O)OC1CCC(c2cc(Nc3ccc4c(c3)C[S+]([O-])C4)[nH]n2)C1 (centres unmarked) [Compound 30]
8 | < 10 | – | – | < 10 | CC1(NC(=O)OC2CCC(c3cc(Nc4ccc5c(c4)C[S+]([O-])C5)[nH]n3)C2)CC1 (centres unmarked) [Compound 31]
9 | – | – | – | < 10 | CC1(NC(=O)OC2CCC(c3cc(Nc4ccc5c(c4)C[S+]([O-])C5)[nH]n3)C2)CC1 (centres unmarked) [Compound 32]
10 | – | – | – | 10 to 50 | CCNC(=O)OC1CCC(c2cc(Nc3ccc4c(c3)C[S+]([O-])C4)[nH]n2)C1 (centres unmarked) [Compound 37]
11 | – | < 10 | – | – | O=C(NC1CC1F)OC1CCC(c2cc(Nc3ccc4c(c3)C[S+]([O-])C4)[nH]n2)C1 (centres unmarked) [Compound 41]

Further lines, the molecule ahead of its results:

Row | SMILES | IC50 (CDK2/CycA2 kinase; [1]) [nM] | IC50 (CDK2 CycE1 kinase; 10 µM ATP (kinase)) [nM] | IC50 (CDK2/CycA2 kinase; [2]) [nM] | IC50 (CDK2 CycE1 kinase; [3]) [nM]
12 | O=C(NC1CCC1)OC1CCC(c2cc(Nc3ccc4c(c3)CS(=O)(=O)C4)[nH]n2)C1 (centres unmarked) [Compound 1] | < 10 | < 10 | – | –
13 | CC(C)NC(=O)OC1CCC(c2cc(Nc3ccc4c(c3)C[S+]([O-])C4)n[nH]2)C1 (centres unmarked) [Compound 2] | – | – | 10 to 50 | < 10
14 | CC(NC(=O)OC1CCC(c2cc(Nc3ccc4c(c3)CS(=O)(=O)C4)[nH]n2)C1)C1CC1 (centres unmarked) [Compound 3] | – | – | < 10 | < 10
15 | CC(C)(C)NC(=O)OC1CCC(c2cc(Nc3ccc4c(c3)CS(=O)(=O)C4)[nH]n2)C1 (centres unmarked) [Compound 4] | < 10 | < 10 | – | –
16 | C[C@H](NC(=O)O[C@@H]1CC[C@H](c2cc(Nc3ccc4c(c3)CS(=O)(=O)C4)[nH]n2)C1)C1CC1 [Compound 5] | – | – | < 10 | < 10
17 | CC(C)(CCO)NC(=O)OC1CCC(c2cc(Nc3ccc4c(c3)CS(=O)(=O)C4)[nH]n2)C1 (centres unmarked) [Compound 6] | 10 to 50 | < 10 | – | –
18 | O=C(NC12CC(C1)C2)OC1CCC(c2cc(Nc3ccc4c(c3)CS(=O)(=O)C4)[nH]n2)C1 (centres unmarked) [Compound 7] | < 10 | < 10 | – | –
19 | COCc1cc(Nc2cc([C@H]3CC[C@@H](OC(=O)NC(C)C)C3)n[nH]2)cc2c1C(C)S(=O)(=O)C2 (some centres unmarked) [Compound 8] | – | – | – | 10 to 50
20 | CC(C)NC(=O)OC1CCC(c2cc(Nc3cc(F)c4c(c3)CS(=O)(=O)C4)[nH]n2)C1 (centres unmarked) [Compound 11] | < 10 | < 10 | – | –
21 | O=C(NCC(F)(F)F)OC1CCC(c2cc(Nc3ccc4c(c3)CS(=O)(=O)C4)[nH]n2)C1 (centres unmarked) [Compound 12] | 10 to 50 | < 10 | – | –
22 | O=C(NCC(F)F)OC1CCC(c2cc(Nc3ccc4c(c3)CS(=O)(=O)C4)[nH]n2)C1 (centres unmarked) [Compound 13] | < 10 | < 10 | – | –
23 | CC(C)(C)NC(=O)OC1CCC(c2cc(Nc3ccc4c(c3)C[S+]([O-])C4)n[nH]2)C1 (centres unmarked) [Compound 14] | < 10 | < 10 | – | –
24 | CC(C)NC(=O)OC1CCC(c2cc(Nc3ccc4c(c3)CCS4(=O)=O)n[nH]2)C1 (centres unmarked) [Compound 15] | – | < 10 | – | –
25 | O=C(NC12CC(C1)C2)OC1CCC(c2cc(Nc3ccc4c(c3)C[S+]([O-])C4)n[nH]2)C1 (centres unmarked) [Compound 16] | < 10 | < 10 | – | –
26 | CC1(C)CCN1C(=O)OC1CCC(c2cc(Nc3ccc4c(c3)CS(=O)(=O)C4)[nH]n2)C1 (centres unmarked) [Compound 17] | < 10 | < 10 | – | –
27 | CC1(C)CCN1C(=O)OC1CCC(c2cc(Nc3ccc4c(c3)CS(=O)(=O)C4)[nH]n2)C1 (centres unmarked) [Compound 18] | – | – | < 10 | –
28 | CC1CN(C)CCN1C(=O)OC1CCC(c2cc(Nc3ccc4c(c3)C[S+]([O-])C4)[nH]n2)C1 (centres unmarked) [Compound 20] | – | 10 to 50 | – | –
29 | CC1CN(C)CCN1C(=O)OC1CCC(c2cc(Nc3ccc4c(c3)CS(=O)(=O)C4)[nH]n2)C1 (centres unmarked) [Compound 21] | < 10 | < 10 | – | –
30 | CC(C)NC(=O)OC1CCC(c2cc(Nc3ccc4c(c3)C[S+]([O-])C4)n[nH]2)C1 (centres unmarked) [Compound 22] | 10 to 50 | < 10 | – | –
31 | CC(C)NC(=O)OC1CCC(c2cc(Nc3ccc4c(c3)C[S+]([O-])C4)n[nH]2)C1 (centres unmarked) [Compound 23] | – | – | – | < 10
32 | O=C(NC12CC(C1)C2)OC1CCC(c2cc(Nc3ccc4c(c3)C[S+]([O-])C4)n[nH]2)C1 (centres unmarked) [Compound 33] | – | – | – | < 10
33 | O=C(NC12CC(C1)C2)OC1CCC(c2cc(Nc3ccc4c(c3)C[S+]([O-])C4)n[nH]2)C1 (centres unmarked) [Compound 34] | – | – | – | < 10
34 | CC(C)(C)NC(=O)OC1CCC(c2cc(Nc3ccc4c(c3)C[S+]([O-])C4)n[nH]2)C1 (centres unmarked) [Compound 35] | – | – | – | < 10
35 | CC(C)(C)NC(=O)OC1CCC(c2cc(Nc3ccc4c(c3)C[S+]([O-])C4)n[nH]2)C1 (centres unmarked) [Compound 36] | – | – | – | < 10
